Test results taken from the supplement of paper PMC13380429.

How the values were obtained:
Conditions in all cases: 72 h
Caco-2 [1] = assay: cell viability relative to DMSO; higher = less toxic
Calu-3 [2] = assay: as above
HepG2 [3] = assay: as above
U2OS [4] = assay: as above
Vero E6 [5] = assay: as above
Caco-2 [6] = assay: relative viability EC50 (midpoint between 100% and the lowest measured viability); higher = less toxic
Calu-3 [7] = assay: as above
HepG2 [8] = assay: as above
U2OS [9] = assay: as above
Vero E6 [10] = assay: as above
Caco-2 [11] = assay: drug sensitivity score (DSS) for viability; higher = more toxic; extreme values may be limits of the assay
Calu-3 [12] = assay: as above
HepG2 [13] = assay: as above
U2OS [14] = assay: as above
Vero E6 [15] = assay: as above

Row | SMILES | cell viability (Caco-2 [1]; 1 nM) [%] | cell viability (Caco-2 [1]; 10 nM) [%] | cell viability (Caco-2 [1]; 100 nM) [%] | cell viability (Caco-2 [1]; 1000 nM) [%] | cell viability (Caco-2 [1]; 10000 nM) [%] | cell viability (Calu-3 [2]; 1 nM) [%] | cell viability (Calu-3 [2]; 10 nM) [%] | cell viability (Calu-3 [2]; 100 nM) [%] | cell viability (Calu-3 [2]; 1000 nM) [%] | cell viability (Calu-3 [2]; 10000 nM) [%] | cell viability (HepG2 [3]; 1 nM) [%] | cell viability (HepG2 [3]; 10 nM) [%] | cell viability (HepG2 [3]; 100 nM) [%] | cell viability (HepG2 [3]; 1000 nM) [%] | cell viability (HepG2 [3]; 10000 nM) [%] | cell viability (U2OS [4]; 1 nM) [%] | cell viability (U2OS [4]; 10 nM) [%] | cell viability (U2OS [4]; 100 nM) [%] | cell viability (U2OS [4]; 1000 nM) [%] | cell viability (U2OS [4]; 10000 nM) [%] | cell viability (Vero E6 [5]; 1 nM) [%] | cell viability (Vero E6 [5]; 10 nM) [%] | cell viability (Vero E6 [5]; 100 nM) [%] | cell viability (Vero E6 [5]; 1000 nM) [%] | cell viability (Vero E6 [5]; 10000 nM) [%] | relative viability EC50 (Caco-2 [6]) [µM] | relative viability EC50 (Calu-3 [7]) [µM] | relative viability EC50 (HepG2 [8]) [µM] | relative viability EC50 (U2OS [9]) [µM] | relative viability EC50 (Vero E6 [10]) [µM] | drug sensitivity score (Caco-2 [11]) | drug sensitivity score (Calu-3 [12]) | drug sensitivity score (HepG2 [13]) | drug sensitivity score (U2OS [14]) | drug sensitivity score (Vero E6 [15])
1 | C1CCC(/N=C(\NC23CC4CC(CC(C4)C2)C3)N2CCOCC2)CC1 | 101 | 91.7 | 102 | 96.7 | 101 | 106 | 90.2 | 103 | 89 | 100 | 96.1 | 108 | 91.7 | 113 | 108 | 96.4 | 94.8 | 102 | 98.6 | 89.5 | 88.3 | 96 | 90.6 | 98.9 | 104 | > 10 | > 10 | > 10 | > 10 | > 10 | 0 | 0 | 0 | 0 | 0
2 | CC(Oc1ccc(O)cc1)(P(=O)(O)O)P(=O)(O)O | 110 | 98.7 | 98 | 87.1 | 104 | 106 | 88.6 | 103 | 84.8 | 97.1 | 106 | 95.4 | 97.6 | 99.2 | 102 | 104 | 99.5 | 105 | 98 | 100 | 96.5 | 104 | 97.7 | 98.7 | 95.8 | > 10 | > 10 | > 10 | > 10 | > 10 | 0 | 0 | 0 | 0 | 0
3 | CC1=NN=C(c2ccc(N)cc2)c2cc3c(cc2C1)OCO3 | 95.7 | 100 | 107 | 102 | 81 | 107 | 88.2 | 103 | 87.6 | 95.1 | 109 | 93.2 | 104 | 97.9 | 106 | 93.3 | 93.9 | 99.3 | 96.8 | 94 | 94.5 | 102 | 98.4 | 104 | 100 | > 10 | > 10 | > 10 | > 10 | > 10 | 0.4 | 0 | 0 | 0 | 0
4 | CCCC(=O)C1(c2ccccc2)CCN(C(=O)[C@@H](Cc2ccc(OC)cc2)NC(=O)[C@@H](N)Cc2cncn2C)CC1 | 108 | 94.9 | 97.3 | 102 | 99.7 | 98.3 | 100 | 96.6 | 101 | 106 | 95.4 | 105 | 97.8 | 118 | 95.3 | 98.8 | 97.9 | 104 | 102 | 97.7 | 102 | 101 | 98.7 | 102 | 97.1 | > 10 | > 10 | > 10 | > 10 | > 10 | 0 | 0 | 0 | 0 | 0
5 | CCCNCCc1ccc(NS(=O)(=O)c2ccc(OC(F)(F)F)cc2)cc1 | 102 | 102 | 91.5 | 103 | 98.2 | 97.8 | 108 | 102 | 100 | 97.4 | 101 | 92.5 | 104 | 85.5 | 90 | 105 | 104 | 100 | 98.4 | 92.9 | 116 | 106 | 101 | 103 | 88.2 | > 10 | > 10 | > 10 | > 10 | > 10 | 0 | 0 | 1.1 | 0 | 0
6 | CN(C)CCn1cc(S(=O)(=O)c2cccc(F)c2)c2cccnc21 | 98.2 | 102 | 106 | 98.8 | 103 | 116 | 94.7 | 90.4 | 97.5 | 95.3 | 106 | 110 | 91.8 | 103 | 97.5 | 103 | 98.3 | 99.9 | 98.2 | 103 | 98.6 | 102 | 101 | 105 | 97.7 | > 10 | > 10 | > 10 | > 10 | > 10 | 0 | 0 | 0 | 0 | 0
7 | COCCOc1ccc2c(c1)ncn2-c1ccc2cccc(N3CCC(N)CC3)c2n1 | 94.1 | 108 | 98.2 | 104 | 90.4 | 96 | 92.7 | 103 | 123 | 87.4 | 99.3 | 101 | 98.3 | 93.3 | 8.1 | 98.6 | 104 | 95.3 | 95.4 | 45.2 | 98.3 | 97.1 | 102 | 94.9 | 48.5 | > 10 | > 10 | 2.57 | 2.47 | 2.35 | 0 | 0 | 6.1 | 3.7 | 3.6
8 | COc1ccc(CCC(=O)Nc2nc3ccc(Cl)cc3s2)cc1OC | 102 | 94 | 95.9 | 92.1 | 85.4 | 102 | 94.9 | 92.7 | 91.7 | 89.3 | 96.5 | 110 | 96.3 | 98.3 | 98.1 | 101 | 94.7 | 98.5 | 95.1 | 96.3 | 101 | 96.9 | 97.3 | 101 | 95.2 | > 10 | > 10 | > 10 | > 10 | > 10 | 0.3 | 0.1 | 0 | 0 | 0
9 | Fc1ccc(-c2nc3n(c2-c2ccncc2)CCS3)cc1 | 99.6 | 101 | 90.9 | 89.4 | 92 | 95.2 | 86.2 | 90.9 | 87.7 | 101 | 97.3 | 93.2 | 97.8 | 99.9 | 100 | 99 | 97.8 | 98.7 | 96.1 | 97.6 | 97.8 | 99.7 | 98.2 | 99.1 | 93 | > 10 | > 10 | > 10 | > 10 | > 10 | 0.2 | 0 | 0 | 0 | 0
10 | NC1=N[C@@]2(c3cc(NC(=O)c4ccc(F)cn4)ccc3F)COC[C@H]2CS1 | 94.8 | 93.7 | 101 | 86 | 103 | 103 | 96.5 | 93.4 | 93.1 | 98.5 | 99.9 | 110 | 93.4 | 112 | 105 | 98.6 | 94.6 | 101 | 98.4 | 100 | 95.5 | 97.2 | 94.3 | 99.4 | 102 | > 10 | > 10 | > 10 | > 10 | > 10 | 0 | 0 | 0 | 0 | 0
11 | O=c1[nH]ccc2cc(OC3CCNCC3)ccc12 | 89.7 | 96.4 | 99.7 | 100 | 106 | 93.8 | 106 | 111 | 127 | 130 | 98.1 | 99.7 | 108 | 112 | 106 | 97.6 | 98.2 | 101 | 96.3 | 94.9 | 97.1 | 101 | 89.6 | 100 | 92 | > 10 | > 10 | > 10 | > 10 | > 10 | 0 | 0 | 0 | 0 | 0
12 | O=c1[nH]c2ccccc2n1C1CCN(CCOc2ccccc2)CC1 [oxiperomide] | 104 | 105 | 87.3 | 104 | 87.2 | 112 | 101 | 97.1 | 97.9 | 88.2 | 104 | 112 | 95.7 | 98.1 | 64.7 | 98.9 | 108 | 100 | 99.8 | 91.6 | 97.4 | 95.8 | 98.6 | 99.4 | 78.7 | > 10 | > 10 |  | > 10 | > 10 | 0 | 0.1 | 1.9 | 0 | 0.7
13 | Nc1n[n+]([O-])c2ccccc2[n+]1[O-] [tirapazamine] | 99.9 | 102 | 92.3 | 94.8 | 90.4 | 104 | 103 | 107 | 97.8 | 102 | 92.3 | 91.1 | 93.2 | 88.9 | 63.9 | 100 | 98.9 | 99.1 | 97.8 | 99 | 101 | 97.6 | 101 | 95.6 | 90.7 | > 10 | > 10 |  | > 10 | > 10 | 0 | 0 | 2.8 | 0 | 0
